From US6472348B1, “Pyridone derivatives and herbicides” (Kumiai Chemical Industry Co., Ltd., priority 1996, dated 2002) come the findings set out here.

The structures appear in SMILES notation.

One series has as its system green foxtail (Se). In words: Test Example 6: crop plant selectivity by upland field soil treatment (soybean), herbicidal effects. Set-up: scale not given here. Conditions: 21st day after application. Format: in vivo. A digest of the protocol:
(§1)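 Seeds are sown in sand and covered with soil. The soil is treated with test compound. Pots are kept in a greenhouse. Weed control and soybean damage are rated visually 21 days after application.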

The subject of series [1] is pale smartweed (Po). The description is as above. The conditions noted are these: 21st day after application. Format: in vivo. Also on record: scale not given here. A digest of the protocol:
as §1

Series [2] relates to slender amaranth (Am). Described as above. The series is classed as in vivo. Also on record: scale not given here. Conditions: 21st day after application. A digest of the protocol:
as §1

The subject of another series is wheat (Tr). Nature of the series: Test Example 9: crop plant selectivity by upland field foliage treatment (wheat), phytotoxicity.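 Also: grade of crop injury; 5 = at least 90%; 4 = 70 to 90%; 3 = 50 to 70%; 2 = 30 to 50%; 1 = 10 to 30%; 0 = under 10%.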 Conditions: dose 1.6 g ai/10a, 14th day after treatment. A digest of the protocol: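 Read-out: weed control and wheat injury, rated by a defined scoring standard 14 days after foliar application.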
Another series has as its system China jute (Ab). Nature of the series: Test Example 11: crop plant selectivity by upland field foliage treatment (corn), herbicidal effects. Format: in vivo. Also on record: scale not given here. A digest of the protocol: (§2)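 Corn with pale smartweed, slender amaranth, common lambsquarters and China jute sown in sand-filled pots and grown 2 weeks in a greenhouse before foliage treatment. Herbicidal effect and crop phytotoxicity scored on day 14 after treatment against a rating standard.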

Series [3] has as its system common lambsquarters (Ch). Described as above. The series is classed as in vivo. Set-up: scale not given here. A digest of the protocol:
as §2

Series [4] concerns pale smartweed (Po). The description is as above. Format: in vivo. Set-up: scale not given here. A digest of the protocol:
as §2

Series [5] has as its system slender amaranth (Am). The description is as above. Format: in vivo. Set-up: scale not given here. The method in brief: as §2
The mark [6] stands for this setting: upland field foliage treatment (corn test), dose 1.6 g ai/10a, 14th day after treatment.
Where [7] appears, read: upland field foliage treatment (corn test), dose 0.1 g ai/10a, 14th day after treatment.

On to `Cn1c(C(F)(F)F)ccc(-c2cc(OCC(F)(F)F)c(Cl)cc2F)c1=O` [1-155], for which the “Herbicidal effects Se” value in the series on green foxtail (Se) (dose 1.6 g ai/10a) and with green foxtail (Se) (dose 6.3 g ai/10a) was 5 in each case. Also, the “Herbicidal effects Po” value in the series with pale smartweed (Po) [1] (dose 1.6 g ai/10a) and in the series on pale smartweed (Po) [1] (dose 6.3 g ai/10a) was 5 in each case. For the same molecule, the “Herbicidal effects Am” value in the series with slender amaranth (Am) [2] (dose 1.6 g ai/10a) and with slender amaranth (Am) [2] (dose 6.3 g ai/10a) was 5 in each case.
As for `Cn1c(C(F)(F)F)ccc(-c2cc(OCC3CC3)c(Cl)cc2F)c1=O` [1-160], in the series on green foxtail (Se) (dose 6.3 g ai/10a), the “Herbicidal effects Se” value is 5. Moreover, in the series on pale smartweed (Po) [1] (dose 6.3 g ai/10a), the “Herbicidal effects Po” value amounted to 5. In the series with slender amaranth (Am) [2] (dose 6.3 g ai/10a), the “Herbicidal effects Am” value is on record as 5. In addition, the “Phytotoxicity Tr” value in the series with wheat (Tr) is listed as 2.
In the case of `C#CCOc1cc(-c2ccc(C(F)(F)F)n(N)c2=O)c(F)cc1Cl` [1-178], the “Herbicidal effects Ab” value with China jute (Ab) (setting [6]) stood at 5. In addition, in series [3] (setting [6]), the “Herbicidal effects Ch” value worked out at 5. The “Herbicidal effects Po” value with pale smartweed (Po) [4] (setting [6]) is 5. The “Herbicidal effects Am” value in the series on slender amaranth (Am) [5] (setting [6]) was 5. The “Phytotoxicity Tr” value in the series on wheat (Tr) was 2.
As to `COc1cc(-c2ccc(C(F)(F)F)n(N)c2=O)c(F)cc1Cl` [1-179], the “Herbicidal effects Ab” value in the series with China jute (Ab) (setting [6]) was 5. Also, the “Herbicidal effects Ch” value in series [3] (setting [6]) is on record as 5. The “Herbicidal effects Po” value in the series with pale smartweed (Po) [4] (setting [6]) came out at 5. Also, in the series with slender amaranth (Am) [5] (setting [6]), the “Herbicidal effects Am” value is 5. Further, the “Phytotoxicity Tr” value with wheat (Tr) came out at 2.
Turning to `C#CC(O)c1cc(-c2ccc(C(F)(F)F)n(C)c2=O)c(F)cc1Cl` (stereo not drawn) [Compound 1-202], in the series with green foxtail (Se) (dose 1.6 g ai/10a), the “Herbicidal effects Se” value worked out at 5. Moreover, in the series with pale smartweed (Po) [1] (dose 1.6 g ai/10a), the “Herbicidal effects Po” value was found to be 5. Further, in the series on slender amaranth (Am) [2] (dose 1.6 g ai/10a), the “Herbicidal effects Am” value amounted to 5. In the series on wheat (Tr), the “Phytotoxicity Tr” value was 2.
In the case of `Cc1cc2c(-c3ccc(C(F)(F)F)n(C)c3=O)c(F)cc(Cl)c2o1` [Compound 4-1], the “Herbicidal effects Se” value with green foxtail (Se) (dose 1.6 g ai/10a) and in the series with green foxtail (Se) (dose 6.3 g ai/10a) was 5 throughout. The “Herbicidal effects Po” value in the series with pale smartweed (Po) [1] (dose 1.6 g ai/10a) and in the series on pale smartweed (Po) [1] (dose 6.3 g ai/10a) was 5 throughout. For the same molecule, the “Herbicidal effects Am” value in the series with slender amaranth (Am) [2] (dose 1.6 g ai/10a) and in the series on slender amaranth (Am) [2] (dose 6.3 g ai/10a) was 5 in each case. Besides, the “Phytotoxicity Tr” value in the series on wheat (Tr) is recorded as 2.
Consider `CCc1cc2c(-c3ccc(C(F)(F)F)n(C)c3=O)c(F)cc(Cl)c2o1` [Compound 4-2], for which, in the series on green foxtail (Se) (dose 1.6 g ai/10a), the “Herbicidal effects Se” value turned out to be 5. The “Herbicidal effects Po” value in the series with pale smartweed (Po) [1] (dose 1.6 g ai/10a) came to 5. Further, the “Herbicidal effects Am” value with slender amaranth (Am) [2] (dose 1.6 g ai/10a) is given as 5. In addition, the “Phytotoxicity Tr” value with wheat (Tr) is 2.
For `C#CCN1C(=O)COc2cc(F)c(-c3cn(C)c(C(F)(F)F)cc3=O)cc21` [Compound 7-1], the “Herbicidal effects Ab” value in the series on China jute (Ab) (China jute, foliage treatment, dose 1.6 g ai/10a, evaluated on 14th day after treatment, index per Table 47) is 5. In series [3] (common lambsquarters, foliage treatment, dose 1.6 g ai/10a, evaluated on 14th day after treatment, index per Table 47), the “Herbicidal effects Ch” value was determined as 5. For the same molecule, the “Herbicidal effects Po” value is listed as 5 in the series with pale smartweed (Po) [4] (pale smartweed, foliage treatment, dose 1.6 g ai/10a, evaluated on 14th day after treatment, index per Table 47) and 5 with pale smartweed (Po) [1] (dose 6.3 g ai/10a). The “Herbicidal effects Am” value in the series on slender amaranth (Am) [5] (slender amaranth, foliage treatment, dose 1.6 g ai/10a, evaluated on 14th day after treatment, index per Table 47) is reported as 5. Further, the “Herbicidal effects Se” value in the series on green foxtail (Se) (dose 6.3 g ai/10a) is 5. Besides, the “Phytotoxicity Tr” value in the series with wheat (Tr) is reported as 2.
As to `CON=Cc1cc(-c2ccc(C(F)(F)F)n(C)c2=O)c(F)cc1Cl` [Compound No. 1-72, 5-(1-methyl-6-trifluoromethyl-2(1H)-pyridon-3-yl)-2-chloro-4-fluorobenzaldehydeoxime-O-methyl ether], in the series with China jute (Ab) (setting [6]), the “Herbicidal effects Ab” value was 5. In addition, the “Herbicidal effects Ch” value in series [3] (setting [6]) is listed as 5. Besides, the “Herbicidal effects Po” value with pale smartweed (Po) [4] (setting [6]), in the series on pale smartweed (Po) [1] (dose 1.6 g ai/10a) and in the series with pale smartweed (Po) [1] (dose 6.3 g ai/10a) was 5 each time. The “Herbicidal effects Am” value in the series with slender amaranth (Am) [5] (setting [6]), in the series on slender amaranth (Am) [2] (dose 1.6 g ai/10a) and in the series with slender amaranth (Am) [2] (dose 6.3 g ai/10a) was 5 in each case. The “Herbicidal effects Se” value in the series on green foxtail (Se) (dose 1.6 g ai/10a) and in the series with green foxtail (Se) (dose 6.3 g ai/10a) was 5 each time.
In the case of `C#CCN1C(=O)COc2cc(F)c(-c3ccc(C(F)(F)F)n(C)c3=O)cc21` [Compound No. 2-1, 3-[7-fluoro-2,3-dihydro-4-(2-propynyl)-1,4-benzoxazin-3-on-6-yl]-1-methyl-6-trifluoromethyl-2(1H)-pyridone], in the series on China jute (Ab) (setting [7]), the “Herbicidal effects Ab” value amounted to 5. Further, the “Herbicidal effects Ch” value in series [3] (setting [7]) stood at 5. In addition, the “Herbicidal effects Po” value in the series with pale smartweed (Po) [4] (setting [7]), with pale smartweed (Po) [1] (dose 1.6 g ai/10a) and in the series on pale smartweed (Po) [1] (dose 6.3 g ai/10a) was 5 each time. Further, the “Herbicidal effects Am” value in the series on slender amaranth (Am) [5] (setting [7]), in the series with slender amaranth (Am) [2] (dose 1.6 g ai/10a) and in the series on slender amaranth (Am) [2] (dose 6.3 g ai/10a) was 5 in each case. Further, the “Herbicidal effects Se” value in the series on green foxtail (Se) (dose 1.6 g ai/10a) and in the series on green foxtail (Se) (dose 6.3 g ai/10a) was 5 in each case.
With `C#CCn1c(=O)sc2cc(F)c(-c3ccc(C(F)(F)F)n(C)c3=O)cc21` [Compound No. 3-1, 3-[6-fluoro-3-(2-propynyl)-benzothiazolin-2-on-5-yl]-1-methyl-6-trifluoromethyl-2(1H)-pyridone], in the series with green foxtail (Se) (dose 6.3 g ai/10a), the “Herbicidal effects Se” value was 5. The “Herbicidal effects Po” value with pale smartweed (Po) [1] (dose 6.3 g ai/10a) was determined as 5. The “Herbicidal effects Am” value with slender amaranth (Am) [2] (dose 6.3 g ai/10a) turned out to be 5.
With `COCc1cc2c(-c3ccc(C(F)(F)F)n(C)c3=O)c(F)cc(Cl)c2o1` [Compound No. 4-4, 3-(7-chloro-5-fluoro-2-methoxymethylbenzofuran-4-yl)-1-methyl-6-trifluoromethyl-2-(1H)-pyridone], in the series on China jute (Ab) (setting [6]), the “Herbicidal effects Ab” value was 5. Further, the “Herbicidal effects Ch” value in series [3] (setting [6]) stood at 5. Also, the “Herbicidal effects Po” value in the series with pale smartweed (Po) [4] (setting [6]) and in the series with pale smartweed (Po) [1] (dose 6.3 g ai/10a) was 5 each time. The “Herbicidal effects Am” value in the series with slender amaranth (Am) [5] (setting [6]) and with slender amaranth (Am) [2] (dose 6.3 g ai/10a) was 5 each time. Besides, the “Herbicidal effects Se” value in the series on green foxtail (Se) (dose 6.3 g ai/10a) amounted to 5.
Turning to `Cn1cc(-c2cc(Oc3ccccc3)c(Cl)cc2F)c(=O)cc1C(F)(F)F` [Compound No. 6-19, 5-(4-chloro-2-fluoro-5-phenoxyphenyl)-1-methyl-2-trifluoromethyl-4(1H)-pyridone], the “Herbicidal effects Se” value with green foxtail (Se) (dose 1.6 g ai/10a) and with green foxtail (Se) (dose 6.3 g ai/10a) was 5 in each case. Moreover, the “Herbicidal effects Po” value with pale smartweed (Po) [1] (dose 1.6 g ai/10a) and in the series with pale smartweed (Po) [1] (dose 6.3 g ai/10a) was 5 each time. The “Herbicidal effects Am” value with slender amaranth (Am) [2] (dose 1.6 g ai/10a) and in the series with slender amaranth (Am) [2] (dose 6.3 g ai/10a) was 5 each time.
